Reference: patent publication US20240174680A1, “CDK2 INHIBITORS AND METHODS OF USING THE SAME” (Cedilla Therapeutics, Inc., priority 2021, published 2024)

Target: CDK2/Cyclin E1 (Homo sapiens, UniProt P24941)
Assay: CDK2/Cyclin E1 Caliper LabChip EZ Reader mobility shift assay
Format: biochemical
Set-up: purchased Eurofins 14-475
Settings: read-out: Caliper Assay (CDK2/CCNE1): IC50
In short: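 Substrate-to-product conversion of fluorescent peptide (1.5 μM final) read by capillary electrophoresis after 100 min reaction, EDTA-quenched. Enzyme (2.5 nM final) and ATP (100 μM final) were preincubated 30 min with inhibitor dilutions first. % activity vs concentration fitted four-parameter for IC50.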

| Compound | IC50 |
| --- | --- |
| COC[C@H]1CCCN(C(=O)[C@@H](NC(=O)[C@H]2CN(C(=O)c3cncs3)CC23CN(C(=O)[C@H]2CC2(C)C)C3)[C@@H](C)OCC2CCCCC2)C1 [I-196B] | ≤ 10 nM |
| CNC(=O)[C@@H](NC(=O)[C@@H]1CN(C(=O)c2cnn(CC3CCNCC3)c2)CC12CN(C(=O)[C@H]1CC1(C)C)C2)[C@@H](C)OCc1ccccc1 [I-19A] | 100 to 1000 nM |
| COC(=O)[C@H](CO)NC(=O)[C@H]1CN(C(=O)c2cnn(Cc3ccccc3)c2)CC12CN(C(=O)[C@H]1CC1(C)C)C2 [I-209B] | > 10000 nM |
| CNC(=O)[C@@H](NC(=O)[C@@H]1CN(C(=O)c2sc(Cl)nc2Cl)CC12CN(C(=O)[C@H]1CC1(C)C)C2)[C@@H](C)OCC1CCCCC1 [I-232A] | 10 to 100 nM |
| CCC(CC)C(=O)N1CC2(CN(C(=O)c3cnn(Cc4ccccc4)c3)C[C@@H]2C(=O)N[C@H](C(=O)NC)[C@@H](C)OCc2ccccc2)C1 [I-74B] | > 10000 nM |
| CC1(C)C[C@@H]1C(=O)N1CC2(CN(C(=O)c3cnn(Cc4ccccc4)c3)C[C@@H]2C(=O)NCc2nnc[nH]2)C1 [I-191B] | > 10000 nM |
| CC1(C)C[C@@H]1C(=O)N1CC2(CN(C(=O)c3cnn(Cc4ccccc4)c3)C[C@H]2C(=O)NC2CCCN(C(=O)c3ccccc3)C2)C1 (some centres unmarked) [I-59A] | > 10000 nM |
| CNC(=O)[C@H](CCCc1ccccc1)NC(=O)[C@@H]1CN(C(=O)c2cnn(Cc3ccccc3)c2)CC12CN(C(=O)[C@H]1CC1(C)C)C2 [I-101A] | 100 to 1000 nM |
| CNC(=O)[C@@H](NC(=O)[C@@H]1CN(C(=O)c2cnn(Cc3ccccc3)c2)CC12CN(C(=O)[C@H]1CC1(C)C)C2)C(C)(C)SCc1ccccc1 [I-171A, (S)-6-(1-benzyl-1H-pyrazole-4-carbonyl)-N—((R)-3-(benzylthio)-3-methyl-1-(methylamino)-1-oxobutan-2-yl)-2-((S)-2,2-dimethylcyclopropane-1-carbonyl)-2,6-diazaspiro[3.4]octane-8-carboxamide] | 100 to 1000 nM |
| CNC(=O)[C@H](CCCC1CCCCC1)NC(=O)[C@H]1CN(C(=O)c2cnn(Cc3ccccc3)c2)CC12CN(C(=O)[C@H]1CC1(C)C)C2 [I-155B] | 1000 to 10000 nM |
| C[C@@H](OCc1ccccc1)[C@H](NC(=O)[C@@H]1CN(C(=O)c2cnn(Cc3ccccc3)c2)CC12CN(C(=O)[C@H]1CC1(C)C)C2)C(N)=O [I-176A] | 10 to 100 nM |
| CNC(=O)[C@@H](NC(=O)[C@@H]1CN(C(=O)c2ccccn2)CC12CN(C(=O)[C@H]1CC1(C)C)C2)[C@@H](C)OCc1ccccc1 [I-45A] | > 10000 nM |
| CNC(=O)[C@@H](NC(=O)[C@H]1CN(C(=O)c2cnn(Cc3ccccc3)c2)CC12CN(C(=O)[C@H]1CC1(C)C)C2)[C@@H](C)OCC1(C(F)(F)F)CC1 [I-205B] | 1000 to 10000 nM |
| CNC(=O)[C@@H](NC(=O)[C@@H]1CN(C(=O)c2cnn(Cc3ccccc3)c2)CC12CN(C(=O)Cc1ccccc1)C2)[C@@H](C)OCc1ccccc1 [I-25A, (S)-6-(1-benzyl-1H-pyrazole-4-carbonyl)-N-((2S,3R)-3-(benzyloxy)-1-(methylamino)-1-oxobutan-2-yl)-2-(2-phenylacetyl)-2,6-diazaspiro[3.4]octane-8-carboxamide] | > 10000 nM |
| CNC(=O)[C@@H](NC(=O)[C@@H]1CN(C(=O)c2cnn(Cc3ccccc3)c2)CC12CN(C(=O)C(C)(C)F)C2)[C@@H](C)OCc1ccccc1 [I-90A] | 100 to 1000 nM |
| CNC(=O)[C@@H](NC(=O)[C@H]1CN(C(=O)c2sc(COC)nc2C)CC12CN(C(=O)[C@H]1CC1(C)C)C2)[C@@H](C)OCC1CCCCC1 [I-162B] | > 10000 nM |
| COCCNC(=O)[C@@H]1CN(C(=O)c2cnn(Cc3ccccc3)c2)CC12CN(C(=O)[C@H]1CC1(C)C)C2 [I-122A] | > 10000 nM |
| CNC(=O)[C@@H](NC(=O)[C@H]1CN(C(=O)c2cnn(Cc3ccccc3)c2)CC12CN(C(=O)CC1CCC1)C2)[C@@H](C)OCc1ccccc1 [I-27B] | > 10000 nM |
| CNC(=O)[C@@H](NC(=O)[C@H]1CN(C(=O)c2cnc(C(C)(C)C)s2)CC12CN(C(=O)[C@H]1CC1(C)C)C2)[C@@H](C)OCC1CCCCC1 [I-229B] | > 10000 nM |
| CC1(C)C[C@@H]1C(=O)N1CC2(CN(C(=O)c3cnn(Cc4ccccc4)c3)C[C@@H]2C(=O)Nc2ccc(Cc3ccccc3)cc2)C1 [I-84B] | 1000 to 10000 nM |
| CNC(=O)[C@@H](NC(=O)[C@@H]1CN(C(=O)c2cnn(Cc3ccccc3)c2)CC12CN(C(=O)C(C)(C)C)C2)[C@@H](C)OCc1ccccc1 [I-65A] | 10 to 100 nM |

The remaining lines, values ahead:

| IC50 | Compound |
| --- | --- |
| 10 to 100 nM | C[C@@H](OCc1ccccc1)[C@H](NC(=O)C1CN(C(=O)c2cnn(Cc3ccccc3)c2)CC12CN(C(=O)[C@H]1CC1(C)C)C2)C(=O)N1CC2(CCC2)C1 (some centres unmarked) [I-106] |
| ≤ 10 nM | C[C@@H](OCC1CCCCC1)[C@H](NC(=O)[C@@H]1CN(C(=O)c2cnn(Cc3ccccc3)c2)CC12CN(C(=O)[C@H]1CC1(C)C)C2)C(=O)N1CCC(c2nnco2)CC1 [I-449] |
| ≤ 10 nM | COC[C@H]1CCCN(C(=O)[C@@H](NC(=O)[C@@H]2CN(C(=O)c3cncs3)CC23CN(C(=O)[C@H]2CC2(C)C)C3)[C@@H](C)O[C@@H](C)C2CCCCC2)C1 [I-467] |
| 1000 to 10000 nM | CC1(C)C[C@@H]1C(=O)N1CC2(CN(C(=O)c3cnn(Cc4ccccc4)c3)C[C@H]2C(=O)NC[C@H]2CC[C@H](C)CC2)C1 [I-382] |
| 1000 to 10000 nM | [2H]C([2H])([2H])NC(=O)C(NC(=O)[C@@H]1CN(C(=O)c2cncs2)CC12CN(C(=O)[C@H]1CC1(C)C)C2)c1cccc(N2CCOCC2)n1 (some centres unmarked) [I-18] |
| 1000 to 10000 nM | CNC(=O)[C@@H](NC(=O)[C@@H]1CN(C(=O)c2cnn(Cc3ccc(C(=O)O)cc3)c2)CC12CN(C(=O)[C@H]1CC1(C)C)C2)[C@@H](C)OCc1ccccc1 [I-476] |
| 1000 to 10000 nM | COC[C@H]1CCCN(C(=O)[C@H](C)NC(=O)[C@@H]2CN(C(=O)c3cncs3)CC23CN(C(=O)[C@H]2CC2(C)C)C3)C1 [I-325] |
| 1000 to 10000 nM | CC1(C)C[C@@H]1C(=O)N1CC2(CN(C(=O)c3cnn(Cc4ccccc4)c3)C[C@H]2C(=O)N[C@H]2CCCN(C(=O)C3CCCCC3)C2)C1 [I-182] |
| 100 to 1000 nM | CNC(=O)[C@@H](NC(=O)[C@@H]1CN(C(=O)c2cnn(Cc3ccccc3)c2)CC12CN(C(=O)[C@H]1CC1(C)C)C2)[C@@H](C)OCc1cccnc1 [I-247] |
| 100 to 1000 nM | COC[C@H]1CCCN(C(=O)[C@@H](NC(=O)[C@@H]2CN(C(=O)c3cncs3)CC23CN(C(=O)[C@H]2CC2(C)C)C3)[C@@H](C)OC[C@H]2CC[C@H](NC(C)=O)CC2)C1 [I-434] |
| 100 to 1000 nM | C[C@H](OC1CCN(C(=O)[C@@H]2CN(C(=O)c3cnn(Cc4ccccc4)c3)CC23CN(C(=O)[C@H]2CC2(C)C)C3)CC1)c1ccccc1 [I-275] |
| 100 to 1000 nM | C[C@@H](OCC12CCC(CC1)OC2)[C@H](NC(=O)[C@@H]1CN(C(=O)c2cncs2)CC12CN(C(=O)C(C)(C)C1CC1)C2)C(C)(C)O [I-334] |
| 10 to 100 nM | C[C@@H]1C[C@H](C)CN(C(=O)[C@@H](NC(=O)C2CN(C(=O)c3cnn(Cc4ccccc4)c3)CC23CN(C(=O)[C@H]2CC2(C)C)C3)[C@@H](C)OCC2CCCCC2)C1 (some centres unmarked) [I-104] |
| > 10000 nM | Cc1ccc(CNC(=O)[C@H]2CN(C(=O)c3cnn(Cc4ccccc4)c3)CC23CN(C(=O)[C@H]2CC2(C)C)C3)nn1 [I-381] |
| 100 to 1000 nM | CNC(=O)[C@@H](NC(=O)[C@H]1CN(C(=O)c2cnn(Cc3ccc(F)cc3)c2)CC12CN(C(=O)[C@H]1CC1(C)C)C2)[C@@H](C)OCC1CCC(F)(F)CC1 [I-167] |
| 100 to 1000 nM | CC1(C)C[C@@H]1C(=O)N1CC2(CN(C(=O)c3cnn(Cc4ccccc4)c3)C[C@H]2C(=O)N2CCC[C@H](C(=O)NC3CCCCC3)C2)C1 [I-180] |
| 10 to 100 nM | C[C@@H](OCc1ccccc1)[C@H](NC(=O)C1CN(C(=O)c2cnn(Cc3ccccc3)c2)CC12CN(C(=O)[C@H]1CC1(C)C)C2)C(=O)NCCO (some centres unmarked) [I-30] |
| ≤ 10 nM | C[C@@H](OCC1CCC(F)(F)CC1)[C@@H](COC1CCOCC1)NC(=O)[C@@H]1CN(C(=O)c2cncs2)CC12CN(C(=O)[C@H]1CC1(C)C)C2 [I-314] |
| > 10000 nM | Cc1ccc(CNC(=O)[C@@H]2CN(C(=O)c3cnn(Cc4ccccc4)c3)CC23CN(C(=O)C(C)(C)C2CC2)C3)nn1 [I-387, (S)-6-(1-benzyl-1H-pyrazole-4-carbonyl)-2-(2-cyclopropyl-2-methylpropanoyl)-N-((6-methylpyridazin-3-yl)methyl)-2,6-diazaspiro[3.4]octane-8-carboxamide] |
| 10 to 100 nM | CC1(C)C[C@@H]1C(=O)N1CC2(CN(C(=O)c3cncs3)C[C@H]2C(=O)NC(c2cccc(C3CCCCC3)n2)C2COCCO2)C1 (some centres unmarked) [I-496] |
| 10 to 100 nM | C[C@@H](OCC1CCOCC1)[C@@H](COC1CCC(F)(F)CC1)NC(=O)[C@@H]1CN(C(=O)c2cncs2)CC12CN(C(=O)[C@H]1CC1(C)C)C2 [I-312] |
| 10 to 100 nM | C[C@@H](OCc1ccc(Cl)cc1)[C@@H](CO)NC(=O)[C@@H]1CN(C(=O)c2cncs2)CC12CN(C(=O)[C@H]1CC1(C)C)C2 [I-404] |
| ≤ 10 nM | CNC(=O)[C@@H](NC(=O)[C@@H]1CN(C(=O)c2cncs2)CC12CN(C(=O)[C@H]1CC1(C)C)C2)[C@@H](C)OCC1CCC2(CC1)CC2 [I-355] |
| 10 to 100 nM | CNC(=O)C(NC(=O)[C@@H]1CN(C(=O)c2cncs2)CC12CN(C(=O)[C@H]1CC1(C)C)C2)c1cccc(C2CCCCC2)n1 (some centres unmarked) [I-362] |
| 100 to 1000 nM | CNC(=O)C(NC(=O)[C@@H]1CN(C(=O)c2cncs2)CC12CN(C(=O)[C@H]1CC1(C)C)C2)c1ncc(C2CCCCC2)o1 (some centres unmarked) [I-426] |
| 10 to 100 nM | CNC(=O)[C@@H](NC(=O)[C@@H]1CN(C(=O)c2cnn(Cc3ccccc3)c2)CC12CN(C(=O)[C@H]1CC1(C)C)C2)[C@@H](C)OC[C@H]1CC[C@@H](O)CC1 [I-424] |
| > 10000 nM | CNC(=O)[C@@H](NC(=O)[C@@H]1CN(C(=O)c2cncs2)CC12CN(Cc1ccn[nH]1)C2)[C@@H](C)OCC12CCC(CC1)OC2 [I-351] |
| ≤ 10 nM | CNC(=O)[C@@H](NC(=O)[C@@H]1CN(C(=O)c2cncs2)CC12CN(C(=O)[C@H]1CC1(C)C)C2)[C@@H](C)OCC12CCC(CC1)CC2 [I-289] |
| > 10000 nM | C[C@@H](O)[C@H](NC(=O)[C@@H]1CN(C(=O)c2cnn(C)c2)CC12CN(C(=O)[C@H]1CC1(C)C)C2)C(=O)N1CCCCC1 [I-305] |
